Results reported in ChEMBL document CHEMBL4321832 (J Med Chem, 2019).

Tests used:
[1] = biological target: T1, CYP51 (lanosterol 14-alpha demethylase) (Homo sapiens, UniProt Q16850); assay: Inhibition of recombinant full length human CYP51 expressed in Escherichia coli at inhibitor/enzyme ratio 25/1 incubated for 1 hr using [3H] lanosterol as substrate by HPLC analysis relative to control; conditions: probe [3H] lanosterol
T1 sequence (Q16850 whole entry): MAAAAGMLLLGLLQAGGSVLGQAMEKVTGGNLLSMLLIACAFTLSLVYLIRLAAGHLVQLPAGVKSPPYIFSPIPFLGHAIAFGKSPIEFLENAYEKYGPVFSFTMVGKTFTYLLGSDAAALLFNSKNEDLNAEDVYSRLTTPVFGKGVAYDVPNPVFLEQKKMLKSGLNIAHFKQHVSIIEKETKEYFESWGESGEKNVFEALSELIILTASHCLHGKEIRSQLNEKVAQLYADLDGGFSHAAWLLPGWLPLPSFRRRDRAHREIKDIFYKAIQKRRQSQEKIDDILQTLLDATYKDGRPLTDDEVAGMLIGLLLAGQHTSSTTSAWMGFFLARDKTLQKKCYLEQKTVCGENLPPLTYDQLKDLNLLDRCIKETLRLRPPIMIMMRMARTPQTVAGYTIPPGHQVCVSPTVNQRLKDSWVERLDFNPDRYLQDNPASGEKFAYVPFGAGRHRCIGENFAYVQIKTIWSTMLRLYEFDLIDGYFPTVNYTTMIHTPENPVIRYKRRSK

[2] = biological target: T1, CYP51 (lanosterol 14-alpha demethylase); assay: Inhibition of recombinant full length human CYP51 expressed in Escherichia coli at inhibitor/enzyme ratio 50/1 incubated for 1 hr using [3H] lanosterol as substrate by HPLC analysis relative to control; set-up: concentration or dose not given beside the values; conditions: probe [3H] lanosterol
[3] = biological target: T2, Lanosterol 14-alpha demethylase (Homo sapiens, UniProt Q16850); assay: Inhibition of recombinant full length human CYP51 expressed in Escherichia coli incubated for 1 hr using [3H] lanosterol as substrate by HPLC analysis
T2 sequence (Q16850 whole entry): T1 sequence (Q16850 whole entry)

[4] = biological target: T2, Lanosterol 14-alpha demethylase; assay: Inhibition of recombinant full length human CYP51 expressed in Escherichia coli incubated for 1 min using [3H] lanosterol as substrate by HPLC analysis
[5] = Lipophilicity, logP of compound; assay type: physicochemical; conditions: octanol/water
[6] = biological target: T2, Lanosterol 14-alpha demethylase; assay: Binding affinity to recombinant full length human CYP51 expressed in Escherichia coli incubated for 30 sec using [3H] labelled substrate by HPLC analysis
[7] = Inhibition of human CYP51 T314I mutant expressed in Escherichia coli incubated for 1 hr using [3H] lanosterol as substrate by HPLC analysis
MCF7 = assay: Antiproliferative activity against human MCF7 cells assessed as reduction in cell viability incubated for 24 hrs by BrdU based ELISA; assay type: functional; conditions: MCF7, 24 h
A-431 = assay: Antiproliferative activity against human A431 cells assessed as reduction in cell viability incubated for 24 hrs by BrdU based ELISA; assay type: functional; conditions: A-431, 24 h
A549 = assay: Antiproliferative activity against human A549 cells assessed as reduction in cell viability incubated for 24 hrs by BrdU based ELISA; assay type: functional; conditions: A549, 24 h
MDA-MB-436 = assay: Antiproliferative activity against human MDA-MB-436 cells assessed as reduction in cell viability incubated for 24 hrs by BrdU based ELISA; assay type: functional; conditions: MDA-MB-436, 24 h

O=C(N[C@@H](Cn1ccnc1)c1ccc(-c2ccc(F)cc2)cc1-c1ccco1)c1ccc(-c2nnc(-c3ccccc3)o2)cc1
inhibition at 1 h [1]: 0% | inhibition at 1 h [2]: 8% | IC50 [3]: > 25 µM | IC50 [4]: 5.2 µM | logP ([5]; read-out: logP): 5.8

COc1ccc(-c2cc(-c3ccc(F)cc3)ccc2[C@H](Cn2ccnc2)NC(=O)c2ccc(-c3nnc(-c4ccccc4)o3)cc2)cc1
inhibition at 1 h [1]: 0% | inhibition at 1 h [2]: 0% | IC50 [3]: > 25 µM | IC50 [4]: 12 µM | logP ([5]; read-out: logP): 5.8

O=C(N[C@@H](Cn1ccnc1)c1ccc(-c2ccc(F)cc2)cc1Cl)c1ccc(-c2nnc(-c3cc(-c4ccccn4)ccc3F)o2)cc1
inhibition at 1 h [2]: 93% | logP ([5]; read-out: logP): 6.8

O=C(N[C@@H](Cn1ccnc1)c1ccc(-c2ccc(F)cc2)cc1Cl)c1ccc(-c2nnc(-c3cc(Br)cc4ccccc34)o2)cc1
inhibition at 1 h [1]: 25% | inhibition at 1 h [2]: 73% | IC50 [3]: 15 µM | IC50 [4]: < 0.5 µM | logP ([5]; read-out: logP): 7.7 | Kd [6]: 0.47 µM

CS(=O)(=O)c1cc(-c2ccccn2)cc(-c2nnc(-c3ccc(C(=O)N[C@@H](Cn4ccnc4)c4ccc(-c5ccc(F)cc5)cc4Cl)cc3)o2)c1
inhibition at 1 h [1]: 82% | inhibition at 1 h [2]: 90% | IC50 [3]: 4.4 µM | IC50 [4]: < 0.5 µM | logP ([5]; read-out: logP): 5.3 | Kd [6]: 0.02 µM

O=C(N[C@@H](Cn1ccnc1)c1ccc(-c2ccc(F)cc2)cc1-c1ccccc1)c1ccc(-c2nnc(-c3ccccc3)o2)cc1
inhibition at 1 h [1]: 0% | inhibition at 1 h [2]: 41% | IC50 [3]: > 25 µM | IC50 [4]: 1.5 µM | logP ([5]; read-out: logP): 5.3

O=C(N[C@@H](Cn1ccnc1)c1ccc(-c2ccc(F)cc2)cc1Cl)c1ccc(-c2nnc(-c3ccccc3)o2)cc1
inhibition at 1 h [1]: 73% | inhibition at 1 h [2]: 91% | IC50 [7]: 2.1 µM | IC50 [3]: 5.9 µM | IC50 [4]: < 0.5 µM | logP [5]: 6.9

O=C(N[C@@H](Cn1ccnc1)c1ccc(-c2ccc(F)cc2)cc1Cl)c1ccc(-c2nnc(-c3cc(F)cc(-c4ncncc4F)c3)o2)cc1
inhibition at 1 h [1]: 98% | inhibition at 1 h [2]: 98% | IC50 [3]: < 1 µM | IC50 [4]: < 0.5 µM | logP ([5]; read-out: logP): 6.3 | Kd [6]: 0.09 µM

CS(=O)(=O)c1cc(Br)cc(-c2nnc(-c3ccc(C(=O)N[C@@H](Cn4ccnc4)c4ccc(-c5ccc(F)cc5)cc4Cl)cc3)o2)c1
inhibition at 1 h [1]: 82% | inhibition at 1 h [2]: 89% | IC50 [3]: 3.6 µM | IC50 [4]: < 0.5 µM | logP ([5]; read-out: logP): 5.4 | Kd [6]: 0.13 µM

O=C(N[C@@H](Cn1ccnc1)c1ccc(-c2ccc(F)cc2)cc1F)c1ccc(-c2nnc(-c3ccccc3)o2)cc1
EC50 (MCF7): 10 to 30 µM | EC50 (A-431): 10 to 30 µM | inhibition at 1 h [1]: 33% | inhibition at 1 h [2]: 64% | EC50 (A549): 10 to 30 µM | IC50 [3]: 24.4 µM | IC50 [4]: < 0.5 µM | logP ([5]; read-out: logP): 5.4 | Kd [6]: 0.09 µM | EC50 (MDA-MB-436): 10 to 30 µM

O=C(N[C@@H](Cn1ccnc1)c1ccc(-c2ccc(F)cc2)cc1Cl)c1ccc(-c2nnc(-c3cc(F)cc(-c4ccccn4)c3)o2)cc1
inhibition at 1 h [1]: 95% | inhibition at 1 h [2]: 96% | IC50 [3]: < 1 µM | IC50 [4]: < 0.5 µM | logP ([5]; read-out: logP): 6.8 | Kd [6]: 0.15 µM

O=C(N[C@@H](Cn1ccnc1)c1ccc(-c2ccc(F)cc2)c2ccccc12)c1ccc(-c2nnc(-c3ccccc3)o2)cc1
inhibition at 1 h [1]: 0% | inhibition at 1 h [2]: 1% | IC50 [3]: > 25 µM | IC50 [4]: 3 µM | logP ([5]; read-out: logP): 5.8
